Experimental data from ChEMBL document CHEMBL4382244, “QSAR of 1,4-benzoxazin-3-one antimicrobials and their drug design perspectives” (2018).
Converted amounts (≈) assume the structure as drawn.

Assays:
Assay type in all cases: functional
Staphylococcus aureus [1] = assay: Antibacterial activity against Staphylococcus aureus ATCC 25923 after 24 hrs by disk diffusion method; conditions: ATCC 25923, 24 h
Candida albicans [2] = assay: Antifungal activity against Candida albicans after 24 hrs by spectrophotometric method
Candida albicans [3] = assay: Antifungal activity against Candida albicans after 24 hrs by disk diffusion method
Escherichia coli [4] = assay: Antibacterial activity against Escherichia coli ATCC 25922 after 24 hrs by disk diffusion method; conditions: ATCC 25922, 24 h
Enterococcus faecalis = assay: Antibacterial activity against Enterococcus faecalis ATCC 29212 after 16 to 20 hrs by microdilution method
Bacillus subtilis = assay: Antibacterial activity against Bacillus subtilis
Escherichia coli [5] = assay: Antibacterial activity against Escherichia coli ATCC 25922 after 16 to 20 hrs by microdilution method
Candida albicans [6] = assay: Antifungal activity against Candida albicans
Pseudomonas aeruginosa [7] = assay: Antibacterial activity against Pseudomonas aeruginosa
Klebsiella pneumoniae = assay: Antibacterial activity against Klebsiella pneumoniae RSKK 576 after 16 to 20 hrs by microdilution method
Staphylococcus aureus [8] = assay: Antibacterial activity against Staphylococcus aureus
Staphylococcus aureus [9] = assay: Antibacterial activity against Staphylococcus aureus ATCC 29213 after 16 to 20 hrs by microdilution method
Pseudomonas aeruginosa [10] = assay: Antibacterial activity against Pseudomonas aeruginosa ATCC 10145 after 16 to 20 hrs by microdilution method
Escherichia coli [11] = assay: Antibacterial activity against Escherichia coli
Candida albicans [12] = assay: Antifungal activity against Candida albicans CA-6 by micro-dilution method
Saccharomyces cerevisiae = assay: Antifungal activity against Saccharomyces cerevisiae ATCC 9763 by micro-dilution method
Pichia kudriavzevii = assay: Antifungal activity against Candida krusei ATCC 6258 by micro-dilution method

| SMILES | MIC (Staphylococcus aureus [1]) [µM] | MIC (Candida albicans [2]) [µM] | MIC (Candida albicans [3]) [µM] | MIC (Enterococcus faecalis) [µM] | MIC (Escherichia coli [5]) [µM] | MIC (Klebsiella pneumoniae) [µM] | MIC (Staphylococcus aureus [9]) [µM] | MIC (Pseudomonas aeruginosa [10]) [µM] | further results |
| --- | --- | --- | --- | --- | --- | --- | --- | --- | --- |
| O=C1COc2ccccc2N1O | 2020 (≈ 333 µg/mL) | 2120 (≈ 350 µg/mL) | 2020 (≈ 333 µg/mL) |  |  |  |  |  | MIC (Escherichia coli [4]): 7570 µM (≈ 1250 µg/mL) |
| COc1ccc2c(c1)OC(O)C(=O)N2O (stereo not given) | 1580 (≈ 333 µg/mL) | 2370 (≈ 500 µg/mL) | 2370 (≈ 500 µg/mL) |  |  |  |  |  | MIC (Escherichia coli [4]): 3150 µM (≈ 666 µg/mL) |
| COC1Oc2ccccc2N(O)C1=O (stereo not given) | 2560 (≈ 500 µg/mL) | 3330 (≈ 650 µg/mL) | 3410 (≈ 666 µg/mL) |  |  |  |  |  |  |
| CCOC(=O)CC1Oc2cc([N+](=O)[O-])ccc2NC1=O (stereo not given) |  |  |  |  |  |  |  |  | MIC (Bacillus subtilis): 241 µM (≈ 67.6 µg/mL); MIC (Candida albicans [6]): 121 µM (≈ 33.8 µg/mL); MIC (Pseudomonas aeruginosa [7]): 121 µM (≈ 33.8 µg/mL); MIC (Staphylococcus aureus [8]): 121 µM (≈ 33.8 µg/mL); MIC (Escherichia coli [11]): 241 µM (≈ 67.6 µg/mL) |
| CCOC(=O)CC1Oc2cccc([N+](=O)[O-])c2NC1=O (stereo not given) |  |  |  | 457 (≈ 128 µg/mL) | 457 (≈ 128 µg/mL) | 457 (≈ 128 µg/mL) | 914 (≈ 256 µg/mL) | 457 (≈ 128 µg/mL) |  |
| CCOC(=O)CC1Oc2ccc(C(O)Cn3ccnc3)cc2N(C)C1=O (stereo not given) |  |  |  |  |  |  |  |  | MIC (Candida albicans [12]): 39.2 µM (≈ 14.1 µg/mL); MIC (Saccharomyces cerevisiae): 19.6 µM (≈ 7.04 µg/mL); MIC (Pichia kudriavzevii): 39.2 µM (≈ 14.1 µg/mL) |
| CCOC(=O)CC1Oc2cc(C)ccc2NC1=O (stereo not given) |  |  |  |  |  |  |  |  | MIC (Bacillus subtilis): 303 µM (≈ 75.5 µg/mL); MIC (Pseudomonas aeruginosa [7]): 151 µM (≈ 37.7 µg/mL); MIC (Staphylococcus aureus [8]): 303 µM (≈ 75.5 µg/mL); MIC (Escherichia coli [11]): 151 µM (≈ 37.7 µg/mL) |
| CCOC(=O)CC1Oc2ccc(Cl)cc2NC1=O (stereo not given) |  |  |  | 949 to 1030 (≈ 256 to 277 µg/mL) | 949 to 1030 (≈ 256 to 277 µg/mL) | 949 to 1030 (≈ 256 to 277 µg/mL) | 949 to 1030 (≈ 256 to 277 µg/mL) | 949 to 1030 (≈ 256 to 277 µg/mL) | MIC (Bacillus subtilis): 201 µM (≈ 54.1 µg/mL); MIC (Candida albicans [6]): 100 µM (≈ 27 µg/mL); MIC (Pseudomonas aeruginosa [7]): 100 µM (≈ 27 µg/mL); MIC (Staphylococcus aureus [8]): 201 µM (≈ 54.1 µg/mL); MIC (Escherichia coli [11]): 100 µM (≈ 27 µg/mL) |
| Cc1ccc2c(c1)OCC(=O)N2O | 1860 (≈ 333 µg/mL) | 1950 (≈ 350 µg/mL) | 1860 (≈ 333 µg/mL) |  |  |  |  |  | MIC (Escherichia coli [4]): 2790 µM (≈ 500 µg/mL) |
| Cc1ccc2c(c1)OC(O)C(=O)N2O (stereo not given) | 2560 (≈ 500 µg/mL) |  | 3410 (≈ 666 µg/mL) |  |  |  |  |  | MIC (Escherichia coli [4]): 3410 µM (≈ 666 µg/mL) |
| CCOC(=O)CC1Oc2ccc(-c3ccccc3)cc2NC1=O (stereo not given) |  |  |  | 206 (≈ 64 µg/mL) | 411 (≈ 128 µg/mL) | 411 (≈ 128 µg/mL) | 411 (≈ 128 µg/mL) | 411 (≈ 128 µg/mL) |  |
| CC(=O)ON1C(=O)C(O)Oc2ccccc21 (stereo not given) |  | 2980 (≈ 666 µg/mL) |  |  |  |  |  |  |  |
| CCOC(=O)CC1Oc2ccc(S(=O)(=O)CC)cc2NC1=O (stereo not given) |  |  |  | 391 (≈ 128 µg/mL) | 391 (≈ 128 µg/mL) | 391 (≈ 128 µg/mL) | 782 (≈ 256 µg/mL) | 391 (≈ 128 µg/mL) |  |
| CCOC(=O)CC1Oc2ccc(C(Cn3ccnc3)OCc3ccc(Cl)cc3)cc2N(C)C1=O (stereo not given) |  |  |  |  |  |  |  |  | MIC (Candida albicans [12]): 915 µM (≈ 443 µg/mL); MIC (Saccharomyces cerevisiae): 915 µM (≈ 443 µg/mL); MIC (Pichia kudriavzevii): 114 µM (≈ 55.3 µg/mL) |
| CCOC(=O)CC1Oc2ccc([N+](=O)[O-])cc2NC1=O (stereo not given) |  |  |  | 457 (≈ 128 µg/mL) | 457 (≈ 128 µg/mL) | 457 (≈ 128 µg/mL) | 914 (≈ 256 µg/mL) | 457 (≈ 128 µg/mL) |  |
| O=C1COc2cc(F)ccc2N1O [7-F-D-DIBOA] | 1820 (≈ 333 µg/mL) | 2730 (≈ 500 µg/mL) | 2730 (≈ 500 µg/mL) |  |  |  |  |  | MIC (Escherichia coli [4]): 4550 µM (≈ 833 µg/mL) |
| COC(=O)c1ccc2c(c1)OCC(=O)N2O [7-MeOCO-D-DIBOA] | 4480 (≈ 1000 µg/mL) |  |  |  |  |  |  |  |  |

Further lines, with some results ahead:

| MIC (Staphylococcus aureus [1]) [µM] | MIC (Candida albicans [2]) [µM] | MIC (Candida albicans [3]) [µM] | MIC (Enterococcus faecalis) [µM] | MIC (Escherichia coli [5]) [µM] | MIC (Klebsiella pneumoniae) [µM] | MIC (Staphylococcus aureus [9]) [µM] | MIC (Pseudomonas aeruginosa [10]) [µM] | SMILES | further results |
| --- | --- | --- | --- | --- | --- | --- | --- | --- | --- |
| 3410 (≈ 666 µg/mL) | 768 (≈ 150 µg/mL) | 850 (≈ 166 µg/mL) |  |  |  |  |  | COc1ccc2c(c1)OCC(=O)N2O | MIC (Escherichia coli [4]): 6400 µM (≈ 1250 µg/mL) |
|  |  |  | 457 (≈ 114 µg/mL) | 457 (≈ 114 µg/mL) | 457 (≈ 114 µg/mL) | 914 (≈ 228 µg/mL) | 457 (≈ 114 µg/mL) | CCOC(=O)CC1Oc2ccc(C)cc2NC1=O (stereo not given) | MIC (Bacillus subtilis): 89.2 µM (≈ 22.2 µg/mL); MIC (Candida albicans [6]): 89.2 µM (≈ 22.2 µg/mL); MIC (Pseudomonas aeruginosa [7]): 178 µM (≈ 44.5 µg/mL); MIC (Staphylococcus aureus [8]): 89.2 µM (≈ 22.2 µg/mL); MIC (Escherichia coli [11]): 89.2 µM (≈ 22.2 µg/mL) |
| 7280 (≈ 1500 µg/mL) |  | 7280 (≈ 1500 µg/mL) |  |  |  |  |  | N#Cc1ccc2c(c1)OC(O)C(=O)N2O (stereo not given) |  |
|  |  |  | 1030 (≈ 256 µg/mL) | 1030 (≈ 256 µg/mL) | 1030 (≈ 256 µg/mL) | 1030 (≈ 256 µg/mL) | 1030 (≈ 256 µg/mL) | CCOC(=O)CC1Oc2cccc(C)c2NC1=O (stereo not given) |  |
|  |  |  | 1030 (≈ 257 µg/mL) | 1030 (≈ 257 µg/mL) | 1030 (≈ 257 µg/mL) | 1030 (≈ 257 µg/mL) | 1030 (≈ 257 µg/mL) | CCOC(=O)CC1Oc2cc(N)ccc2NC1=O (stereo not given) | MIC (Bacillus subtilis): 201 µM (≈ 50.2 µg/mL); MIC (Candida albicans [6]): 100 µM (≈ 25.1 µg/mL); MIC (Pseudomonas aeruginosa [7]): 201 µM (≈ 50.2 µg/mL); MIC (Staphylococcus aureus [8]): 201 µM (≈ 50.2 µg/mL); MIC (Escherichia coli [11]): 201 µM (≈ 50.2 µg/mL) |
|  |  |  | 1090 (≈ 225 µg/mL) | 1090 (≈ 225 µg/mL) | 1090 (≈ 225 µg/mL) | 1090 (≈ 225 µg/mL) | 544 (≈ 113 µg/mL) | O=C(O)CC1Oc2ccccc2NC1=O (stereo not given) | MIC (Bacillus subtilis): 212 µM (≈ 44 µg/mL); MIC (Candida albicans [6]): 106 µM (≈ 22 µg/mL); MIC (Pseudomonas aeruginosa [7]): 212 µM (≈ 44 µg/mL); MIC (Staphylococcus aureus [8]): 106 µM (≈ 22 µg/mL); MIC (Escherichia coli [11]): 212 µM (≈ 44 µg/mL) |
|  | 5120 (≈ 1000 µg/mL) |  |  |  |  |  |  | COc1ccc2c(c1)OC(O)C(=O)N2 (stereo not given) |  |
|  |  |  | 407 (≈ 125 µg/mL) | 407 (≈ 125 µg/mL) | 407 (≈ 125 µg/mL) | 814 (≈ 250 µg/mL) | 407 (≈ 125 µg/mL) | CCOC(=O)CC1Oc2ccc(C(=O)OCC)cc2NC1=O (stereo not given) | MIC (Bacillus subtilis): 79.4 µM (≈ 24.4 µg/mL); MIC (Candida albicans [6]): 39.7 µM (≈ 12.2 µg/mL); MIC (Pseudomonas aeruginosa [7]): 159 µM (≈ 48.8 µg/mL); MIC (Staphylococcus aureus [8]): 159 µM (≈ 48.8 µg/mL); MIC (Escherichia coli [11]): 79.4 µM (≈ 24.4 µg/mL) |
|  |  |  | 1010 (≈ 256 µg/mL) | 1010 (≈ 256 µg/mL) | 1010 (≈ 256 µg/mL) | 1010 (≈ 256 µg/mL) | 1010 (≈ 256 µg/mL) | CCOC(=O)CC1Oc2ccc(F)cc2NC1=O (stereo not given) |  |
|  | 4480 (≈ 1000 µg/mL) |  |  |  |  |  |  | COC(=O)c1ccc2c(c1)OC(O)C(=O)N2 (stereo not given) |  |
| 734 (≈ 166 µg/mL) |  | 6630 (≈ 1500 µg/mL) |  |  |  |  |  | O=C1C(O)Oc2cc([N+](=O)[O-])ccc2N1O (stereo not given) | MIC (Escherichia coli [4]): 3680 µM (≈ 833 µg/mL) |
|  |  |  | 949 (≈ 279 µg/mL) | 949 (≈ 279 µg/mL) | 949 (≈ 279 µg/mL) | 949 (≈ 279 µg/mL) | 949 (≈ 279 µg/mL) | CCOC(=O)CC1Oc2cc([N+](=O)[O-])ccc2N(C)C1=O (stereo not given) | MIC (Bacillus subtilis): 185 µM (≈ 54.6 µg/mL); MIC (Candida albicans [6]): 46.4 µM (≈ 13.7 µg/mL); MIC (Pseudomonas aeruginosa [7]): 92.7 µM (≈ 27.3 µg/mL); MIC (Staphylococcus aureus [8]): 185 µM (≈ 54.6 µg/mL); MIC (Escherichia coli [11]): 92.7 µM (≈ 27.3 µg/mL) |
|  | 6700 (≈ 1000 µg/mL) |  |  |  |  |  |  | O=C1COc2ccccc2N1 |  |
| 2760 (≈ 500 µg/mL) | 3680 (≈ 666 µg/mL) | 3680 (≈ 666 µg/mL) |  |  |  |  |  | O=C1C(O)Oc2ccccc2N1O (stereo not given) | MIC (Escherichia coli [4]): 6900 µM (≈ 1250 µg/mL) |
